In paper PMC10682951, “Structure-function and rational design of a spider toxin Ssp1a at human voltage-gated sodium channel subtypes” (Frontiers in Pharmacology, 2023):

How the values were obtained:
Format in all cases: cell-based
hNaV1.3 = biological target: T1, hNaV1.3 (Homo sapiens, UniProt Q9NY46); experiment: Automated whole-cell patch-clamp (QPatch 16X), hNaV1.3; conditions: for IC50: HEK293 cells expressing hNaV1.3 + β1 subunit, QPatch 16X, holding −80 mV, step to 0 mV, peptide incubated 2 min, 0.1% BSA, mean, SEM and n (3-12)
T1 construct: host or cells: HEK293
Method: (§1) Human embryonic kidney 293 (HEK293) cells stably expressing recombinant hNaV1.2, hNaV1.3 and hNaV1.7 and the β1 auxiliary subunit (Scottish Biomedical Drug Discovery, Glasgow, UK) were cultured in Minimal Essential medium (MEM) (Sigma-Aldrich, MO, United States) supplemented with 10% v/v FBS-New Zealand origin (Assay Matrix), 2 mM L-glutamine and selection antibiotics as per manufacturer’s recommendation. The HEK293 cells heterologously expressing mNaV1.7 and F813G-mNaV1.7 were generously provided by Prof Irina Vetter and were cultured in Minimal Essential medium (MEM) (Sigma-Aldrich, MO, United States) supplemented with 10% v/v FBS-New Zealand origin (Assay Matrix), 2 mM L-glutamine and hygromycin 100 μg/mL.
(§2) NaV channel currents from HEK293 cells stably expressing NaV subtypes and the β1 auxiliary subunit were recorded using an automated whole-cell patch clamp system QPatch 16X (Sophion Bioscience A/S, Ballerup, Denmark). As per the manufacturer’s guidelines, the cells were cultured for 48 h to achieve ∼80% confluency, detached using Detachin (Genlantis) and resuspended to 5 × 10^6 cells/mL in serum free media [CHO-cell SFM (Life Technologies), 25 mM HEPES and 100 U/mL penicillin/streptomycin]. The extracellular solution comprised (in mM) 1 CaCl2, 1 MgCl2, 5 HEPES, 3 KCl, 140 NaCl and 20 TEA-Cl, with the pH adjusted to 7.3 with NaOH. The intracellular solution comprised (in mM) 140 CsF, 1 EGTA, 5 CsOH, 10 HEPES and 10 NaCl, with the pH adjusted to 7.3 with CsOH. The osmolarity of both solutions were adjusted to 320 mOsm with sucrose. Compounds were prepared in extracellular solution containing 0.1% bovine serum albumin (Sigma-Aldrich). To obtain the dose-response curves, cells were maintained at a holding potential −80 mV and Na^+ currents were elicited by […] voltage steps to 0 mV from a −120 mV conditioning pulse applied for […]. Increasing concentrations of the peptide were incubated with the cells at the holding potential for 2 min before the voltage protocol was applied.
(§3) The experimental data were analysed using QPatch Assay software v5.6.4 and GraphPad Prism 7.0 using a four-parameter Hill equation [Y = Bottom + (Top—Bottom)/(1 + 10^(Log IC50—X)* Hillslope)] to fit concentration response curves by non-linear regression analysis and Student’s t-test. Data are presented as means ± standard error of mean (SEM) with number of independent experiments stated and p < 0.05 is considered statistically significant. Statistically insignificant shift in the activity is denoted by “little” while small but statistically significant shift in the activity is denoted by “slight” throughout the manuscript.

hNaV1.2 = biological target: T2, hNaV1.2 (Homo sapiens, UniProt Q99250); experiment: Automated whole-cell patch-clamp (QPatch 16X), hNaV1.2; conditions: for IC50: HEK293 cells expressing hNaV1.2 + β1 subunit, QPatch 16X, holding −80 mV, step to 0 mV, peptide incubated 2 min, 0.1% BSA, mean, SEM and n (2-7)
T2 construct: host or cells: HEK293
Method: as §1, §2, §3

hNaV1.7 = biological target: T3, hNaV1.7 (Homo sapiens, UniProt Q15858); experiment: Automated whole-cell patch-clamp (QPatch 16X), hNaV1.7; conditions: for IC50: HEK293 cells expressing hNaV1.7 + β1 subunit, QPatch 16X, holding −80 mV, step to 0 mV, peptide incubated 2 min, 0.1% BSA, mean, SEM and n (3-9)
T3 construct: host or cells: HEK293
Method: as §1, §2, §3

T3 sequence (Q15858 whole entry): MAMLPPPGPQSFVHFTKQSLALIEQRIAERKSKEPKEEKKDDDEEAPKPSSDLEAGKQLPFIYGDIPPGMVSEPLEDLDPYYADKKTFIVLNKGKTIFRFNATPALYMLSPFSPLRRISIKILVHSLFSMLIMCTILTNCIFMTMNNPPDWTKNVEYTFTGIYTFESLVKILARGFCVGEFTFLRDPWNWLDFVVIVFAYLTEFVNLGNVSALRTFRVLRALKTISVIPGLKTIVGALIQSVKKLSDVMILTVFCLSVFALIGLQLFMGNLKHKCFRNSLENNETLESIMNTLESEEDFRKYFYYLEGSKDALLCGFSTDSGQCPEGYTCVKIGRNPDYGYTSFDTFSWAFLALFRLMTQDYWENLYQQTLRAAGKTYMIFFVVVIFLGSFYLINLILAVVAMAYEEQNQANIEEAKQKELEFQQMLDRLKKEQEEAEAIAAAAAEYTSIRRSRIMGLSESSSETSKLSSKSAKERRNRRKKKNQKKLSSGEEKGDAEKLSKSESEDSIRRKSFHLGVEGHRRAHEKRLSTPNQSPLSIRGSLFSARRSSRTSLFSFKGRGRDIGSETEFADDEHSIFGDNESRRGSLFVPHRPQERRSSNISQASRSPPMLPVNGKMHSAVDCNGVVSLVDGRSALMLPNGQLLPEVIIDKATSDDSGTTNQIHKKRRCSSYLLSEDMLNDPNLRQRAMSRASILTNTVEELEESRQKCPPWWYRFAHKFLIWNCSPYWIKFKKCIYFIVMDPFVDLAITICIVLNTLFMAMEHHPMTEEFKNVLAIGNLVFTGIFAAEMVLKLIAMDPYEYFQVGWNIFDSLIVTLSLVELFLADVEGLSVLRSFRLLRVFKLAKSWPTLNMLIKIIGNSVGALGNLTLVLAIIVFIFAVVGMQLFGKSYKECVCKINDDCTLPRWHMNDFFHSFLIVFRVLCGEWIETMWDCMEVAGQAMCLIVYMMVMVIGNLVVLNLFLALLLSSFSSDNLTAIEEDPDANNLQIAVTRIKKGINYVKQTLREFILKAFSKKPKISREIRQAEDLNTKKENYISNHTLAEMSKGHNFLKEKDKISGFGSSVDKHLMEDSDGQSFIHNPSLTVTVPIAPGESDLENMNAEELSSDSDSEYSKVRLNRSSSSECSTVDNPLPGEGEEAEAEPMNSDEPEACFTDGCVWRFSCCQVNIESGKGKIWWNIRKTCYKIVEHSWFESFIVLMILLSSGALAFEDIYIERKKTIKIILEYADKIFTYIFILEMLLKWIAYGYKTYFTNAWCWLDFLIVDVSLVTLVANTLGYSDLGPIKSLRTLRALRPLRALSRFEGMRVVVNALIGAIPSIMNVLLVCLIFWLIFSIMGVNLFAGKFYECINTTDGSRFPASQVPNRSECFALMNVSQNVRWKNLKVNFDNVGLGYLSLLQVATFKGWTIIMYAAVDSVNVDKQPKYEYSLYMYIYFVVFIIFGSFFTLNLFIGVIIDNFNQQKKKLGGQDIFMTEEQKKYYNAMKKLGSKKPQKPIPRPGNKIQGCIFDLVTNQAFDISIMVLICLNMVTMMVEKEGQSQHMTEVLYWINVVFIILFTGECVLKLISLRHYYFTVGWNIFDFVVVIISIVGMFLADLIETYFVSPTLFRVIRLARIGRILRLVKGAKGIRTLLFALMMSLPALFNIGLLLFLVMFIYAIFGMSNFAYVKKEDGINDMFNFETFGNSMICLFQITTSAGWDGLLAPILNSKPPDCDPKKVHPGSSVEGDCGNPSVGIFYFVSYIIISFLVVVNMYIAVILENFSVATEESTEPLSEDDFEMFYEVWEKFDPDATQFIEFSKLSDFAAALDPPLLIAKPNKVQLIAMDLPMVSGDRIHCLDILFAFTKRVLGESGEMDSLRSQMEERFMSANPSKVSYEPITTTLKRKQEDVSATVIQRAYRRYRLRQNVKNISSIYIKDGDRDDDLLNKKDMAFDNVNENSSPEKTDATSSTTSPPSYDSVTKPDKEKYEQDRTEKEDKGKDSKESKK
T3 sequence (Q07699 19-218, further chain): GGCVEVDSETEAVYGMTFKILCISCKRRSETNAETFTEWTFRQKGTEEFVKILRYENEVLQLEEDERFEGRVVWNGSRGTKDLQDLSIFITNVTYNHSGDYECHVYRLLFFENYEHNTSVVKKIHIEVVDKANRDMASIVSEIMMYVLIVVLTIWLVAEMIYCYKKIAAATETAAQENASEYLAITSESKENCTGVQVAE
T1 sequence (Q9NY46 whole entry): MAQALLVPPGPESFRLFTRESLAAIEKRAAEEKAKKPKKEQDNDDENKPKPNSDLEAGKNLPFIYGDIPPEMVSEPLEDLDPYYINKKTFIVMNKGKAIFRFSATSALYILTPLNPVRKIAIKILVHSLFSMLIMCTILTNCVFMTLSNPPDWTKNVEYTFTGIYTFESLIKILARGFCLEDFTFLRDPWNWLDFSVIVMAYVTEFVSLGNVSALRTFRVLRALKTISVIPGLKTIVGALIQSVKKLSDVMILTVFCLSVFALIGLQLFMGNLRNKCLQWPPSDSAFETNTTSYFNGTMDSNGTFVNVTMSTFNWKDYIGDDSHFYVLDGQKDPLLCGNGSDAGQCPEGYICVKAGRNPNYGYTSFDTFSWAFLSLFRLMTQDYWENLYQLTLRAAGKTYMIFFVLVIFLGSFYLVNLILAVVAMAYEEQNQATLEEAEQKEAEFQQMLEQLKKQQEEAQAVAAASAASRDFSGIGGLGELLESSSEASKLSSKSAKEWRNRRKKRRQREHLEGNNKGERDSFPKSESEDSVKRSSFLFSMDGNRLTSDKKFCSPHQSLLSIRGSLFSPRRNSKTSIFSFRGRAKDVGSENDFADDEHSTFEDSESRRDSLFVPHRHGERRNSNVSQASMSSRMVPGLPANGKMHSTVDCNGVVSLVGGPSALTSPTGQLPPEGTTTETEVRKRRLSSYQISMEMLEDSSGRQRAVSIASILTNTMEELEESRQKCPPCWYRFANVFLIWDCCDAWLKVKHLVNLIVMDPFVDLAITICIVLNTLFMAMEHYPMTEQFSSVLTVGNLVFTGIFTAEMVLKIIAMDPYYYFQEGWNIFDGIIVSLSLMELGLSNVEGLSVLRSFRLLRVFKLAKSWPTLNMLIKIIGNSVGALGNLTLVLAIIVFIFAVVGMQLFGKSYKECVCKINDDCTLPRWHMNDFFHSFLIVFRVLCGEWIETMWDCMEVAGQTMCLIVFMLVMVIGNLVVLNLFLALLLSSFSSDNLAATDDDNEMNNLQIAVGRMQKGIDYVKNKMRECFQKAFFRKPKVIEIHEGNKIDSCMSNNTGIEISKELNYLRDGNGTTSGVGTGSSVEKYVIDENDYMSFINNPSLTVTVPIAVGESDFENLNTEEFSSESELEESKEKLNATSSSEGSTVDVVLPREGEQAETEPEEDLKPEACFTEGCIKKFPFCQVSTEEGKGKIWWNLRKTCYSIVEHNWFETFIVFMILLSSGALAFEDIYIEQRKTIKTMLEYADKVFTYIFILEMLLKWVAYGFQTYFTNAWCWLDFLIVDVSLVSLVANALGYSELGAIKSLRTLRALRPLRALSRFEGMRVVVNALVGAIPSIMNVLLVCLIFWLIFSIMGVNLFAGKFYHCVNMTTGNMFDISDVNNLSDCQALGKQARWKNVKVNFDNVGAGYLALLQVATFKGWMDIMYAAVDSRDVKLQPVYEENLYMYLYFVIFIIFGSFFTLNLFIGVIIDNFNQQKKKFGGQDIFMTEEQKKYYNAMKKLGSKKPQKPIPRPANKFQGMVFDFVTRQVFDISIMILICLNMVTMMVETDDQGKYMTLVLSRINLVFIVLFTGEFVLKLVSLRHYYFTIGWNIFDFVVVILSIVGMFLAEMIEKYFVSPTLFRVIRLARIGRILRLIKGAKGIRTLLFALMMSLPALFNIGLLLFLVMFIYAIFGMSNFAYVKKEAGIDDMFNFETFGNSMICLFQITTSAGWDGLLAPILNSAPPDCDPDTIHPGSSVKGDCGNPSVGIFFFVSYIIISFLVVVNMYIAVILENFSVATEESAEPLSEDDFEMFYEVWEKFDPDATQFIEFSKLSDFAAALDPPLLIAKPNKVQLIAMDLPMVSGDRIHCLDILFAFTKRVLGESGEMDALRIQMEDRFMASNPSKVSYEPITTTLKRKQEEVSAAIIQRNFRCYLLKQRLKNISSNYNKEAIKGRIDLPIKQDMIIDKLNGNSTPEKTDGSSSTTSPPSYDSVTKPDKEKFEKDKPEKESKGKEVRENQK
T1 sequence (Q07699 19-218, further chain): as the sequence (Q07699 19-218, further chain) above

What does the source list for `CC(C)C[C@H](NC(=O)[C@H](CC(=O)O)NC(=O)[C@H](Cc1ccc(O)cc1)NC(=O)[C@H](CCCNC(=N)N)NC(=O)[C@@H]1CSSC[C@@H]2NC(=O)[C@H](CCCCN)NC(=O)[C@H](CC(N)=O)NC(=O)[C@H](CC(N)=O)NC(=O)[C@H](CC(N)=O)NC(=O)[C@@H]3CCCN3C(=O)[C@H](CC(=O)O)NC(=O)[C@@H]3CSSC[C@H](NC(=O)[C@H](C(C)C)NC(=O)[C@H](Cc4ccc(O)cc4)NC(=O)CNC(=O)[C@H](CCC(=O)O)NC(=O)[C@H](CSSC[C@H](NC(=O)[C@H](CC(=O)O)NC(=O)CN)C(=O)N[C@@H](CC(C)C)C(=O)NCC(=O)N[C@@H](Cc4c[nH]c5ccccc45)C(=O)N[C@@H](Cc4ccccc4)C(=O)N[C@@H](CO)C(=O)NCC(=O)N3)NC2=O)C(=O)N[C@@H](Cc2c[nH]cn2)C(=O)N[C@@H](CCCNC(=N)N)C(=O)N[C@@H](CCCCN)C(=O)N[C@@H](Cc2ccc(O)cc2)C(=O)N2CCC[C@H]2C(=O)N[C@@H](Cc2c[nH]c3ccccc23)C(=O)N1)C(=O)O` [W24R]?
inhibition at 3 µM (hNaV1.3; 3 µM peptide, QPatch, read-out: Inhibition (block) of hNaV1.3 at 3 µM): ~75%; IC50 (hNaV1.3): 1190 nM; inhibition at 3 µM (hNaV1.2; 3 µM peptide, QPatch, partial inhibition): ~65%; IC50 (hNaV1.2): 423 nM; inhibition at 3 µM (hNaV1.7; 3 µM peptide, QPatch): ~50%; IC50 (hNaV1.7): > 3000 nM

`CC(C)C[C@H](NC(=O)[C@H](CC(=O)O)NC(=O)[C@H](Cc1ccc(O)cc1)NC(=O)[C@H](CCCNC(=N)N)NC(=O)[C@@H]1CSSC[C@@H]2NC(=O)[C@H](CCCCN)NC(=O)[C@H](CC(N)=O)NC(=O)[C@H](CC(N)=O)NC(=O)[C@H](CC(N)=O)NC(=O)[C@@H]3CCCN3C(=O)[C@H](CC(=O)O)NC(=O)[C@@H]3CSSC[C@H](NC(=O)[C@H](C(C)C)NC(=O)[C@H](Cc4ccc(O)cc4)NC(=O)CNC(=O)[C@H](CCC(=O)O)NC(=O)[C@H](CSSC[C@H](NC(=O)[C@H](CC(=O)O)NC(=O)CN)C(=O)N[C@@H](CC(C)C)C(=O)NCC(=O)N[C@@H](Cc4c[nH]c5ccccc45)C(=O)N[C@@H](Cc4ccccc4)C(=O)N[C@@H](CO)C(=O)NCC(=O)N3)NC2=O)C(=O)N[C@@H](Cc2c[nH]cn2)C(=O)N[C@@H](Cc2c[nH]c3ccccc23)C(=O)N[C@@H](CCCCN)C(=O)N[C@@H](Cc2ccc(O)cc2)C(=O)N2CCC[C@H]2C(=O)N[C@@H](Cc2ccccc2)C(=O)N1)C(=O)O` [W28F] was tested. Which IC50 (hNaV1.3) did it give?
The IC50 was over 3000 nM.

What about the IC50 (hNaV1.2) of the same compound?
The IC50 was over 3000 nM.

And the IC50 (hNaV1.7)?
The IC50 was 544 nM.

For `CC(C)C[C@H](NC(=O)[C@H](CC(=O)O)NC(=O)[C@H](Cc1ccc(O)cc1)NC(=O)[C@H](CCCNC(=N)N)NC(=O)[C@@H]1CSSC[C@@H]2NC(=O)[C@H](CCCCN)NC(=O)[C@H](CC(N)=O)NC(=O)[C@H](CC(N)=O)NC(=O)[C@H](CC(N)=O)NC(=O)[C@@H]3CCCN3C(=O)[C@H](CC(=O)O)NC(=O)[C@@H]3CSSC[C@H](NC(=O)[C@H](C(C)C)NC(=O)[C@H](Cc4ccc(O)cc4)NC(=O)CNC(=O)[C@H](CCC(=O)O)NC(=O)[C@H](CSSC[C@H](NC(=O)[C@H](CCCCN)NC(=O)CN)C(=O)N[C@@H](CC(C)C)C(=O)NCC(=O)N[C@@H](Cc4c[nH]c5ccccc45)C(=O)N[C@@H](Cc4ccccc4)C(=O)N[C@@H](CO)C(=O)NCC(=O)N3)NC2=O)C(=O)N[C@@H](Cc2c[nH]cn2)C(=O)N[C@@H](Cc2c[nH]c3ccccc23)C(=O)N[C@@H](CCCCN)C(=O)N[C@@H](Cc2ccc(O)cc2)C(=O)N2CCC[C@H]2C(=O)N[C@@H](Cc2c[nH]c3ccccc23)C(=O)N1)C(=O)O` [D1K], which IC50 (hNaV1.3) is on record?
The IC50 was 196 nM.

And the IC50 (hNaV1.2)?
The IC50 was 97 nM.

What about the IC50 (hNaV1.7) of the same compound?
Its IC50 is 240 nM.
